Converted amounts (≈) assume the structure as drawn. Read-outs that look alike come from different tables or passages of the source. Starred links: 1 amine or outer side, 2 acyl side, 3 side chain; linkers in the order of their positions; H or OH if unused. Positions of bridges follow the written chain, without caps; N, C: chain ends. Residues, ends and D or L forms follow the SMILES beside them. Groups on a side chain read outwards from the residue. *: point of attachment. C20 diacid = O=C(O)CCCCCCCCCCCCCCCCCCC(=O)*; γGlu = O=C(O)[C@H](CCC(=O)[*:2])N[*:1]; AEEA = NCCOCCOCC(=O)O
Experiment: Assay (IV) determination of solubility
Type: physicochemical
Procedure: ASSAY (IV)—Determination of Solubility
The polypeptide was dissolved in water at ˜500 nmol/ml and mixed 1:1 with a series of buffers (100 mM glycylglycine pH 3.0, 100 mM glycylglycine pH 4.0, 100 mM glycylglycine pH 5.0, 100 mM bistrispropane pH 6.0, 100 mM bistrispropane pH 6.5, 100 mM bistrispropane pH 7.0, 100 mM bistrispropane pH 7.5, 100 mM bistrispropane pH 8.0). After 18 hours at room temperature the samples were centrifuged and the polypeptide concentration determined by HPLC.

[1] = pH 3, pH 3.0, read-out: Solubility pH 3.0
[2] = pH 4, pH 4.0, 18 hours at room temperature, Table 2, read-out: Solubility pH 4.0
[3] = pH 4, pH 4.0, read-out: Solubility pH 4.0
[4] = pH 5, pH 5.0, read-out: Solubility pH 5.0
[5] = pH 6, pH 6.0, read-out: Solubility pH 6.0
[6] = pH 6.5, pH 6.5, read-out: Solubility pH 6.5
[7] = pH 7, pH 7.0, 18 hours at room temperature, Table 3, read-out: Solubility pH 7.0
[8] = pH 7, pH 7.0, read-out: Solubility pH 7.0
[9] = pH 7.5, pH 7.5, read-out: Solubility pH 7.5
[10] = pH 8, pH 8.0, read-out: Solubility pH 8.0

Work on `CC[C@H](C)[C@H](NC(=O)[C@@H]1CCCN1C(=O)CNC(=O)[C@H](Cc1ccccc1)NC(=O)[C@H](CC(N)=O)NC(=O)[C@H](C)NC(=O)[C@H](CO)NC(=O)[C@H](CO)NC(=O)[C@H](Cc1c[nH]cn1)NC(=O)[C@@H](NC(=O)[C@H](CC(C)C)NC(=O)[C@H](Cc1ccccc1)NC(=O)[C@H](CCC(=O)O)NC(=O)[C@H](C)NC(=O)[C@H](CC(C)C)NC(=O)[C@H](CCCNC(=N)N)NC(=O)[C@H](CCC(N)=O)NC(=O)[C@@H](NC(=O)[C@H](C)NC(=O)[C@@H]1CSSC[C@H](NC(=O)[C@H](CCCCN)NC(=O)COCCOCCNC(=O)COCCOCCNC(=O)CC[C@H](NC(=O)CCCCCCCCCCCCCCCCCCC(=O)O)C(=O)O)C(=O)N[C@@H](CC(N)=O)C(=O)N[C@@H]([C@@H](C)O)C(=O)N[C@@H](C)C(=O)N[C@@H]([C@@H](C)O)C(=O)N1)[C@@H](C)O)C(C)C)C(=O)N[C@@H](CC(C)C)C(=O)N1CCC[C@H]1C(=O)N1CCC[C@H]1C(=O)N[C@H](C(=O)N[C@@H](CC(N)=O)C(=O)N[C@H](C(=O)NCC(=O)N[C@@H](CO)C(=O)N[C@@H](Cc1c[nH]cn1)C(=O)N[C@H](C(=O)N1CCC[C@H]1C(N)=O)[C@@H](C)O)C(C)C)[C@@H](C)O` [Example 178, N-alpha-[2-(2-{2-[2-(2-{2-[(S)-4-Carboxy-4-(19-carboxyheptadecanoylamino)butyrylamino]ethoxy}ethoxy)acetylamino]ethoxy}ethoxy)acetyl]-[Glu14,Ala21,His35,Pro37]-pramlintide] ({C20 diacid-γGlu-AEEA-AEEA}-KCNTATCATQRLAEFLVHSSANFGPILPPTNVGSHTP-NH2; disulfide 2-7) yielded a solubility [1] of over 200 µM, a solubility [2] of over 200 µM and a solubility [3] of over 200 µM. For the same compound, the solubility [4] was over 200 µM, the solubility [5] was over 200 µM and the solubility [6] was over 200 µM. For the same compound, the solubility [7] was over 200 µM, the solubility [8] was over 200 µM and the solubility [9] was over 200 µM. The solubility [10] was over 200 µM.

`CC[C@H](C)[C@H](NC(=O)[C@@H]1CCCN1C(=O)CNC(=O)[C@H](Cc1ccccc1)NC(=O)[C@H](CC(N)=O)NC(=O)[C@H](CCCCNC(=O)COCCOCCNC(=O)COCCOCCNC(=O)CC[C@H](NC(=O)CCCCCCCCCCCCCCCCCCC(=O)O)C(=O)O)NC(=O)[C@H](CO)NC(=O)[C@H](CO)NC(=O)[C@H](CCCNC(=N)N)NC(=O)[C@@H](NC(=O)[C@H](CC(C)C)NC(=O)[C@H](Cc1ccccc1)NC(=O)[C@H](CCC(=O)O)NC(=O)[C@H](C)NC(=O)[C@H](CC(C)C)NC(=O)[C@H](CCCNC(=N)N)NC(=O)[C@H](CCC(N)=O)NC(=O)[C@@H](NC(=O)[C@H](C)NC(=O)[C@@H]1CSSC[C@H](NC(=O)[C@@H](N)CCCCN)C(=O)N[C@@H](CC(N)=O)C(=O)N[C@@H]([C@@H](C)O)C(=O)N[C@@H](C)C(=O)N[C@@H]([C@@H](C)O)C(=O)N1)[C@@H](C)O)C(C)C)C(=O)N[C@@H](CC(C)C)C(=O)N[C@@H](CO)C(=O)N[C@@H](CCCNC(=N)N)C(=O)N[C@H](C(=O)N[C@@H](CC(N)=O)C(=O)N[C@H](C(=O)NCC(=O)N[C@@H](CO)C(=O)N[C@@H](CCCNC(=N)N)C(=O)N[C@H](C(=O)N[C@@H](Cc1ccc(O)cc1)C(N)=O)[C@@H](C)O)C(C)C)[C@@H](C)O` [Example 150, N-epsilon21-[2-(2-{2-[2-(2-{2-[(S)-4-Carboxy-4-(19-carboxyheptadecanoylamino)butyrylamino]ethoxy}ethoxy)acetylamino]ethoxy}ethoxy)acetyl]-[Glu14,Arg18,Lys21,Ser28,Arg29,Arg35]-pramlintide] (H-KCNTATCATQRLAEFLVRSSK([AEEA-AEEA-γGlu-C20 diacid])NFGPILSRTNVGSRTY-NH2; disulfide 2-7) gave a solubility [1] of over 200 µM, a solubility [2] of over 200 µM and a solubility [3] of over 200 µM. For the same compound, the solubility [4] was over 200 µM, the solubility [5] was over 200 µM and the solubility [6] was 163 µM (≈ 788 µg/mL). The solubility [7] was over 200 µM, the solubility (pH 7, pH 7.0, Table 8, read-out: Solubility pH 7.0) was over 200 µM and the solubility (pH 7, pH 7.0, Table 9, read-out: Solubility pH 7.0) was over 200 µM. The solubility [8] was over 200 µM, the solubility (pH 7.5, pH 7.5, Table 9, read-out: Solubility pH 7.5) was over 200 µM and the solubility [9] was over 200 µM. For the same compound, the solubility [10] was over 200 µM.

`CC[C@H](C)[C@H](NC(=O)[C@@H]1CCCN1C(=O)CNC(=O)[C@H](Cc1ccccc1)NC(=O)[C@H](CC(N)=O)NC(=O)[C@H](CCCCNC(=O)COCCOCCNC(=O)COCCOCCNC(=O)CC[C@H](NC(=O)CCCCCCCCCCCCCCCCCCC(=O)O)C(=O)O)NC(=O)[C@H](CO)NC(=O)[C@H](CO)NC(=O)[C@H](Cc1c[nH]cn1)NC(=O)[C@@H](NC(=O)[C@H](CC(C)C)NC(=O)[C@H](Cc1ccccc1)NC(=O)[C@H](CCC(=O)O)NC(=O)[C@H](C)NC(=O)[C@H](CC(C)C)NC(=O)[C@H](CCCNC(=N)N)NC(=O)[C@H](CCC(N)=O)NC(=O)[C@@H](NC(=O)[C@H](C)NC(=O)[C@@H]1CSSC[C@H](NC(=O)[C@@H](N)CCCCN)C(=O)N[C@@H](CC(N)=O)C(=O)N[C@@H]([C@@H](C)O)C(=O)N[C@@H](C)C(=O)N[C@@H]([C@@H](C)O)C(=O)N1)[C@@H](C)O)C(C)C)C(=O)N[C@@H](CC(C)C)C(=O)N1CCC[C@H]1C(=O)N1CCC[C@H]1C(=O)N[C@H](C(=O)N[C@@H](CC(N)=O)C(=O)N[C@H](C(=O)NCC(=O)N[C@@H](CO)C(=O)N[C@@H](Cc1c[nH]cn1)C(=O)N[C@H](C(=O)N[C@@H](Cc1ccc(O)cc1)C(N)=O)[C@@H](C)O)C(C)C)[C@@H](C)O` [Example 132, N-epsilon21-[2-(2-{2-[2-(2-{2-[(S)-4-Carboxy-4-(19-carboxyheptadecanoylamino)butyrylamino]ethoxy}ethoxy)acetylamino]ethoxy}ethoxy)acetyl]-[Glu14,Lys21,His35]-pramlintide] (H-KCNTATCATQRLAEFLVHSSK([AEEA-AEEA-γGlu-C20 diacid])NFGPILPPTNVGSHTY-NH2; disulfide 2-7) showed a solubility [1] of over 200 µM, a solubility [2] of over 200 µM and a solubility [3] of over 200 µM. The solubility [4] was over 200 µM, the solubility [5] was over 200 µM and the solubility [6] was 198 µM (≈ 940 µg/mL). The solubility [7] was 142 µM (≈ 674 µg/mL), the solubility [8] was 142 µM (≈ 674 µg/mL) and the solubility [9] was 169 µM (≈ 802 µg/mL). The solubility [10] was over 200 µM.

Compound `CC[C@H](C)[C@H](NC(=O)[C@H](CCCCNC(=O)COCCOCCNC(=O)COCCOCCNC(=O)CC[C@H](NC(=O)CCCCCCCCCCCCCCCCCCC(=O)O)C(=O)O)NC(=O)CNC(=O)[C@H](Cc1ccccc1)NC(=O)[C@H](CC(N)=O)NC(=O)[C@H](Cc1c[nH]cn1)NC(=O)[C@H](CO)NC(=O)[C@H](CO)NC(=O)[C@H](Cc1c[nH]cn1)NC(=O)[C@H](Cc1c[nH]cn1)NC(=O)[C@H](CC(C)C)NC(=O)[C@H](Cc1ccccc1)NC(=O)[C@H](CC(N)=O)NC(=O)[C@H](C)NC(=O)[C@H](CC(C)C)NC(=O)[C@H](CCCNC(=N)N)NC(=O)[C@H](CCC(N)=O)NC(=O)[C@@H](NC(=O)[C@H](C)NC(=O)[C@@H]1CSSC[C@H](NC(=O)[C@@H](N)CCCCN)C(=O)N[C@@H](CC(N)=O)C(=O)N[C@@H]([C@@H](C)O)C(=O)N[C@@H](C)C(=O)N[C@@H]([C@@H](C)O)C(=O)N1)[C@@H](C)O)C(=O)N[C@@H](CC(C)C)C(=O)N[C@@H](CO)C(=O)N[C@@H](CO)C(=O)N[C@H](C(=O)N[C@@H](CC(N)=O)C(=O)N[C@H](C(=O)NCC(=O)N[C@@H](CO)C(=O)N[C@@H](Cc1c[nH]cn1)C(=O)N[C@H](C(=O)N[C@@H](Cc1ccc(O)cc1)C(N)=O)[C@@H](C)O)C(C)C)[C@@H](C)O` [Example 134, N-epsilon25-[2-(2-{2-[2-(2-{2-[(S)-4-Carboxy-4-(19-carboxyheptadecanoylamino)butyrylamino]ethoxy}ethoxy)acetylamino]ethoxy}ethoxy)acetyl]-[His17,His21,Lys25,Ser28,Ser29.His35]-pramlintide] (H-KCNTATCATQRLANFLHHSSHNFGK([AEEA-AEEA-γGlu-C20 diacid])ILSSTNVGSHTY-NH2; disulfide 2-7) has a solubility [1] of over 200 µM, a solubility [3] of over 200 µM and a solubility [4] of over 200 µM. For the same compound, the solubility [5] was 3 µM (≈ 14.4 µg/mL), the solubility [6] was 1 µM (≈ 4.79 µg/mL) and the solubility [8] was 2 µM (≈ 9.58 µg/mL). For the same compound, the solubility [9] was 3 µM (≈ 14.4 µg/mL) and the solubility [10] was 2 µM (≈ 9.58 µg/mL).

Work on `CC(C)C[C@H](NC(=O)[C@H](CCCNC(=N)N)NC(=O)[C@H](CCC(N)=O)NC(=O)[C@@H](NC(=O)[C@H](C)NC(=O)[C@@H]1CSSC[C@H](NC(=O)[C@H](CCCCN)NC(=O)CC[C@H](NC(=O)CCCCCCCCCCCCCCCCCCC(=O)O)C(=O)O)C(=O)N[C@@H](CC(N)=O)C(=O)N[C@@H]([C@@H](C)O)C(=O)N[C@@H](C)C(=O)N[C@@H]([C@@H](C)O)C(=O)N1)[C@@H](C)O)C(=O)N[C@@H](C)C(=O)N[C@@H](CCC(=O)O)C(=O)N[C@@H](Cc1ccccc1)C(=O)N[C@@H](CC(C)C)C(=O)N[C@H](C(=O)N[C@@H](Cc1c[nH]cn1)C(=O)N[C@@H](CO)C(=O)N[C@@H](CO)C(=O)N[C@@H](CO)C(=O)N[C@@H](CO)C(=O)N1CCC[C@H]1C(=O)NCC(=O)N[C@@H](C)C(=O)N1CCC[C@H]1C(=O)N[C@@H](CC(C)C)C(=O)N[C@@H](CO)C(=O)N[C@@H](CO)C(=O)N[C@H](C(=O)N[C@@H](CC(=O)O)C(=O)N[C@H](C(=O)NCC(=O)N[C@@H](CO)C(=O)N[C@@H](CC(=O)O)C(=O)N[C@H](C(=O)N1CCC[C@H]1C(N)=O)[C@@H](C)O)C(C)C)[C@@H](C)O)C(C)C` [Example 171, N-alpha-[(S)-4-Carboxy-4-(19-carboxynonadecanoylamino)butyryl]-[Glu14,Ser21,Ser22,Pro23,Ala25,Pro26,Ser28,Ser29,Asp31,Asp35,Pro37]-pramlintide] ({C20 diacid-γGlu}-KCNTATCATQRLAEFLVHSSSSPGAPLSSTDVGSDTP-NH2; disulfide 2-7) yielded a solubility [1] of over 200 µM, a solubility [2] of over 200 µM and a solubility [3] of over 200 µM. The solubility [4] was over 200 µM, the solubility [5] was over 200 µM and the solubility [6] was over 200 µM. For the same compound, the solubility [7] was over 200 µM, the solubility [8] was over 200 µM and the solubility [9] was over 200 µM. The solubility [10] was over 200 µM.

— patent publication US8722849B2, “Polypeptides” (Novo Nordisk A/S, priority 2011, dated 2014)
